# In US10696674B2, “Spirolactams as inhibitors of ROCK” (BRISTOL-MYERS SQUIBB COMPANY, priority 2016, dated 2020):
# Target: ROCK2 (Homo sapiens, UniProt O75116)
# Assay: ROCK2 assay (Caliper LABCHIP peptide phosphorylation)
# Format: biochemical
# Settings: 5 μM ATP, 1.5 μM peptide substrate
# Procedure: The effectiveness of compounds of the present invention as ROCK inhibitors can be determined in a 30 μL assay containing 20 mM HEPES, pH 7.5, 20 mM MgCl2, 0.015% Brij-35, 4 mM DTT, 5 μM ATP and 1.5 μM peptide substrate (FITC-AHA-AKRRRLSSLRA-OH) (SEQ ID NO.1). Compounds were dissolved in DMSO so that the final concentration of DMSO was <2%, and the reaction was initiated with Rho kinase variants. After incubation, the reaction was terminated by the addition of EDTA and the phosphorylated and non-phosphorylated peptides separated using a LABCHIP® 3000 Reader (Caliper Life Sciences). […] Compounds were tested in dose-response format, and the inhibition of kinase activity was calculated at each concentration of compound. The inhibition data were fit using a curve-fitting program to determine the IC50; i.e., the concentration of compound required to inhibit 50% of kinase activity.
# Representative Examples were tested in the ROCK2 assay described above and found having ROCK2 inhibitory activity. The ranges of the ROCK2 IC50 values are as follows: ROCK2 IC50: ++++ (<3 nM) +++ (3-30 nM) ++ (30-300 nM) + (300-2000 nM)
# ROCK2, sequence (O75116 whole entry, species assumed): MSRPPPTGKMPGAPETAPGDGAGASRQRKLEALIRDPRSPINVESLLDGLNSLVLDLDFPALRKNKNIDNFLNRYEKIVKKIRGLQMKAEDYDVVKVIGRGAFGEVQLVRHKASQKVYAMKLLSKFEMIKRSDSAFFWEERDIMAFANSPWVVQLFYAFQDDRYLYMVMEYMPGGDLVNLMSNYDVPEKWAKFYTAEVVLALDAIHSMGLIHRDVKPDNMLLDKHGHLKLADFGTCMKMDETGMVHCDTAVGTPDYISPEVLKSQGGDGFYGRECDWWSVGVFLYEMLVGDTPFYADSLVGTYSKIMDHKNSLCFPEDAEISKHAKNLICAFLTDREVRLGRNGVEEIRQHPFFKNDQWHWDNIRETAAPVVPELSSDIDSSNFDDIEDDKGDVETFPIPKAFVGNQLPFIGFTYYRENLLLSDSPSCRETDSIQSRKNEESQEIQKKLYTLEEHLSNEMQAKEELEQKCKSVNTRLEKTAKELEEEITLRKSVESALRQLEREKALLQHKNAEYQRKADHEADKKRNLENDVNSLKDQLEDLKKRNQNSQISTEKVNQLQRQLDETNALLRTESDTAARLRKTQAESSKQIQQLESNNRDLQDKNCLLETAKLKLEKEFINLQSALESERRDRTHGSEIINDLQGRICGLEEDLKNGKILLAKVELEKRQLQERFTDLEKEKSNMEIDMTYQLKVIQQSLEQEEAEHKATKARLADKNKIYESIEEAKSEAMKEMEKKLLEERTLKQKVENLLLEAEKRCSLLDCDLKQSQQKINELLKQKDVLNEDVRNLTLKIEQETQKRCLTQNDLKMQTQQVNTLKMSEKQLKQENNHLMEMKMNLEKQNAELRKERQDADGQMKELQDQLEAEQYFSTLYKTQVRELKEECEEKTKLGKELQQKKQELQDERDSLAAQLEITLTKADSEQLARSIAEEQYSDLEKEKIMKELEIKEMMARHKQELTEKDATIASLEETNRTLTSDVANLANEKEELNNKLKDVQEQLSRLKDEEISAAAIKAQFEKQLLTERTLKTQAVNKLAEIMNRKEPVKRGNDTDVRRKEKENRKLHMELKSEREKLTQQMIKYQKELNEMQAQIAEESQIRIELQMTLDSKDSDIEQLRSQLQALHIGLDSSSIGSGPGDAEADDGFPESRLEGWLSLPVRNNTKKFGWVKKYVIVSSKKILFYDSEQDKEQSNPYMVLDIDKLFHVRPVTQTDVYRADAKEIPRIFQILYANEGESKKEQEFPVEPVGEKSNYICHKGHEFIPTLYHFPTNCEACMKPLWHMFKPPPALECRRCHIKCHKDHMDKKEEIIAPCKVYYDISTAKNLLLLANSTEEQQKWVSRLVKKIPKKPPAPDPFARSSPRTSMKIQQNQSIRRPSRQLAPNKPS
row,SMILES,IC50
1,"O=C1N(c2ccc(-c3cn[nH]c3)cc2)CCC12Cc1ccccc1N2 (single isomer, unassigned) [Example 3, 1′-(4-(1H-Pyrazol-4-yl)phenyl)spiro[indoline-2,3′-pyrrolidin]-2′-one]",30 to 300 nM
2,"COc1ccc2c(c1)NC1(CCN(c3ccc(-c4cn[nH]c4)cc3)C1=O)C2 (single isomer, unassigned) [Example 6, 1′-(4-(1H-Pyrazol-4-yl)phenyl)-6-methoxyspiro[indoline-2,3′-pyrrolidin]-2′-one]",3 to 30 nM
3,"O=C1N(c2ccc(-c3cn[nH]c3)cc2)CCC12Cc1cc(F)ccc1N2 (single isomer, unassigned) [Example 8, 1′-(4-(1H-Pyrazol-4-yl)phenyl)-5-fluorospiro[indoline-2,3′-pyrrolidin]-2′-one]",3 to 30 nM
4,"O=C1N(c2ccc(-c3cn[nH]c3)cc2)CCC12Cc1cc(F)ccc1N2 (single isomer, unassigned) [Example 9, 1′-(4-(1H-Pyrazol-4-yl)phenyl)-5-fluorospiro[indoline-2,3′-pyrrolidin]-2′-one]",30 to 300 nM
5,"O=C1N(c2ccc(-c3cn[nH]c3)cc2)CCC12Cc1ccc(F)cc1C2 (single isomer, unassigned) [Example 15, 1′-(4-(1H-Pyrazol-4-yl)phenyl)-5-fluoro-1,3-dihydrospiro[indene-2,3′-pyrrolidin]-2′-one]",3 to 30 nM
6,"O=C1N(c2ccc(-c3cn[nH]c3)cc2)CCC12Cc1ccc(F)cc1C2 (single isomer, unassigned) [Example 16, 1′-(4-(1H-Pyrazol-4-yl)phenyl)-5-fluoro-1,3-dihydrospiro[indene-2,3′-pyrrolidin]-2′-one]",3 to 30 nM
7,"COc1nc(N2CCC3(Cc4ccc(F)cc4C3)C2=O)ccc1-c1cn[nH]c1 (single isomer, unassigned) [Example 18, 5-Fluoro-1′-(6-methoxy-5-(1H-pyrazol-4-yl)pyridin-2-yl)-1,3-dihydrospiro[indene-2,3′-pyrrolidin]-2′-one]",3 to 30 nM
8,"COc1ccc2c(c1)CC1(CCN(c3ccc(-c4cn[nH]c4)c(OC)n3)C1=O)C2 (single isomer, unassigned) [Example 19, 5-Methoxy-1′-(6-methoxy-5-(1H-pyrazol-4-yl)pyridin-2-yl)-1,3-dihydrospiro[indene-2,3′-pyrrolidin]-2′-one]",300 to 2000 nM
9,"COc1ccc2c(c1)CC1(CCN(c3ccc(-c4cn[nH]c4)cc3)C1=O)O2 (single isomer, unassigned) [Example 25, 1′-(4-(1H-Pyrazol-4-yl)phenyl)-5-methoxy-3H-spiro[benzofuran-2,3′-pyrrolidin]-2′-one]",30 to 300 nM
10,"O=C1N(c2ccc(-c3cn[nH]c3)cc2)CCC12Cc1ccccc1O2 (single isomer, unassigned) [Example 30, 1′-(4-(1H-Pyrazol-4-yl)phenyl)-3H-spiro[benzofuran-2,3′-pyrrolidin]-2′-one]",30 to 300 nM
11,"COc1cc(N2CCC3(Cc4ccccc4N3)C2=O)ccc1-c1cn[nH]c1 (single isomer, unassigned) [Example 33, 1′-(3-Methoxy-4-(1H-pyrazol-4-yl)phenyl)spiro[indoline-2,3′-pyrrolidin]-2′-one]",30 to 300 nM
12,"COc1cc(F)c2c(c1)NC1(CCN(c3ccc(-c4cn[nH]c4)cc3)C1=O)C2 (single isomer, unassigned) [Example 39, 1′-(4-(1H-Pyrazol-4-yl)phenyl)-4-fluoro-6-methoxyspiro[indoline-2,3′-pyrrolidin]-2′-one]",300 to 2000 nM
13,"O=C1N(c2ccc(-c3cn[nH]c3)cc2)CCC12Cc1ccc(OCC3CC3)cc1N2 (single isomer, unassigned) [Example 43, 1′-(4-(1H-Pyrazol-4-yl)phenyl)-6-(cyclopropylmethoxy)spiro[indoline-2,3′-pyrrolidin]-2′-one]",30 to 300 nM
14,"O=C1N(c2ccc(-c3cn[nH]c3)cc2)CCC12Cc1ccccc1C2 [Example 11, 1′-(4-(1H-Pyrazol-4-yl)phenyl)-1,3-dihydrospiro[indene-2,3′-pyrrolidin]-2′-one]",3 to 30 nM
15,"COc1ccc2c(c1)CC1(CCN(c3ccc(-c4cn[nH]c4)cc3)C1=O)N2 (stereo not shown) [Example 12, 1′-(4-(1H-Pyrazol-4-yl)phenyl)-5-methoxyspiro[indoline-2,3′-pyrrolidin]-2′-one]",30 to 300 nM
16,"O=C1N(c2ccc(-c3ccc4[nH]ncc4c3)cc2)CCC12Cc1ccccc1N2 (stereo not shown) [Example 13, 1′-(4-(1H-Indazol-5-yl)phenyl)spiro[indoline-2,3′-pyrrolidin]-2′-one]",3 to 30 nM
17,"COc1ccc2c(c1)N(C)C1(CCN(c3ccc(-c4cn[nH]c4)cc3)C1=O)C2 (stereo not shown) [Example 14, 1′-(4-(1H-Pyrazol-4-yl)phenyl)-6-methoxy-1-methylspiro[indoline-2,3′-pyrrolidin]-2′-one]",30 to 300 nM

# Second part, the compound after the results:
row,IC50,SMILES
1,3 to 30 nM,"O=C1N(c2ccc(-c3cn[nH]c3)cc2)CCC12Cc1cc(F)ccc1N2 (racemic) [Example 7, 1′-(4-(1H-Pyrazol-4-yl)phenyl)-5-fluorospiro[indoline-2,3′-pyrrolidin]-2′-one]"
2,< 3 nM,"O=C1N(c2ccc(-c3cn[nH]c3)cc2)CCC12Cc1ccccc1O2 (racemic) [Example 29, 1′-(4-(1H-Pyrazol-4-yl)phenyl)-3H-spiro[benzofuran-2,3′-pyrrolidin]-2′-one]"
3,< 3 nM,"COc1cc(N2CCC3(Cc4ccccc4N3)C2=O)ccc1-c1cn[nH]c1 (racemic) [Example 32, 1′-(3-methoxy-4-(1H-pyrazol-4-yl)phenyl)spiro[indoline-2,3′-pyrrolidin]-2′-one]"
4,< 3 nM,"COc1cc(F)c2c(c1)NC1(CCN(c3ccc(-c4cn[nH]c4)cc3)C1=O)C2 (racemic) [Example 38, 1′-(4-(1H-Pyrazol-4-yl)phenyl)-4-fluoro-6-methoxyspiro[indoline-2,3′-pyrrolidin]-2′-one]"
5,< 3 nM,"O=C1N(c2ccc(-c3cn[nH]c3)cc2)CCC12Cc1ccccc1N2 (single isomer, unassigned) [Example 2, 1′-(4-(1H-Pyrazol-4-yl)phenyl)spiro[indoline-2,3′-pyrrolidin]-2′-one]"
6,< 3 nM,"COc1ccc2c(c1)NC1(CCN(c3ccc(-c4cn[nH]c4)cc3)C1=O)C2 (single isomer, unassigned) [Example 5, 1′-(4-(1H-Pyrazol-4-yl)phenyl)-6-methoxyspiro[indoline-2,3′-pyrrolidin]-2′-one]"
7,< 3 nM,"COc1nc(N2CCC3(Cc4ccc(F)cc4C3)C2=O)ccc1-c1cn[nH]c1 (single isomer, unassigned) [Example 17, 5-Fluoro-1′-(6-methoxy-5-(1H-pyrazol-4-yl)pyridin-2-yl)-1,3-dihydrospiro[indene-2,3′-pyrrolidin]-2′-one]"
8,< 3 nM,"COc1ccc2c(c1)CC1(CCN(c3ccc(-c4cn[nH]c4)c(OC)n3)C1=O)C2 (single isomer, unassigned) [Example 20, 5-Methoxy-1′-(6-methoxy-5-(1H-pyrazol-4-yl)pyridin-2-yl)-1,3-dihydrospiro[indene-2,3′-pyrrolidin]-2′-one]"
9,< 3 nM,"COc1ccc2c(c1)CC1(CCN(c3ccc(-c4cn[nH]c4)cc3)C1=O)C2 (single isomer, unassigned) [Example 22, 1′-(4-(1H-Pyrazol-4-yl)phenyl)-5-methoxy-1,3-dihydrospiro[indene-2,3′-pyrrolidin]-2′-one]"
10,< 3 nM,"COc1ccc2c(c1)CC1(CCN(c3ccc(-c4cn[nH]c4)cc3)C1=O)O2 (single isomer, unassigned) [Example 26, 1′-(4-(1H-Pyrazol-4-yl)phenyl)-5-methoxy-3H-spiro[benzofuran-2,3′-pyrrolidin]-2′-one]"
11,< 3 nM,"O=C1N(c2ccc(-c3cn[nH]c3)cc2)CCC12Cc1ccccc1O2 (single isomer, unassigned) [Example 31, 1′-(4-(1H-Pyrazol-4-yl)phenyl)-3H-spiro[benzofuran-2,3′-pyrrolidin]-2′-one]"
12,< 3 nM,"COc1cc(N2CCC3(Cc4ccccc4N3)C2=O)ccc1-c1cn[nH]c1 (single isomer, unassigned) [Example 34, 1′-(3-methoxy-4-(1H-pyrazol-4-yl)phenyl)spiro[indoline-2,3′-pyrrolidin]-2′-one]"
13,< 3 nM,"COc1cc(F)c2c(c1)NC1(CCN(c3ccc(-c4cn[nH]c4)cc3)C1=O)C2 (single isomer, unassigned) [Example 40, 1′-(4-(1H-Pyrazol-4-yl)phenyl)-4-fluoro-6-methoxyspiro[indoline-2,3′-pyrrolidin]-2′-one]"
14,< 3 nM,"O=C1N(c2ccc(-c3cn[nH]c3)cc2)CCC12Cc1ccc(OCC3CC3)cc1N2 (single isomer, unassigned) [Example 42, 1′-(4-(1H-Pyrazol-4-yl)phenyl)-6-(cyclopropylmethoxy)spiro[indoline-2,3′-pyrrolidin]-2′-one]"
15,< 3 nM,"COc1ccc2c(c1)NC1(CCN(c3ccc(-c4cn[nH]c4)cc3)C1=O)C2 (stereo not shown) [Example 4, 1′-(4-(1H-Pyrazol-4-yl)phenyl)-6-methoxyspiro[indoline-2,3′-pyrrolidin]-2′-one]"
16,< 3 nM,"COc1nc(N2CCC3(Cc4ccccc4N3)C2=O)ccc1-c1cn[nH]c1 (stereo not shown) [Example 10, 1′-(6-methoxy-5-(1H-pyrazol-4-yl)pyridin-2-yl)spiro[indoline-2,3′-pyrrolidin]-2′-one]"
17,< 3 nM,"COc1nc(N2CCC3(Cc4ccccc4C3)C2=O)ccc1-c1cn[nH]c1 [Example 23, 1′-(6-Methoxy-5-(1H-pyrazol-4-yl)pyridin-2-yl)-1,3-dihydrospiro[indene-2,3′-pyrrolidin]-2′-one]"
